Measurements taken from PMC5882164, “A novel calcimimetic agent, evocalcet (MT-4580/KHK7580), suppresses the parathyroid cell function with little effect on the gastrointestinal tract or CYP isozymes in vivo and in vitro” (PLoS ONE, 2018).
Where “and” joins values, the source holds several entries; their conditions need not be identical. Identical values can stand only once.

Columns and labels:
CYP3A4/5 = assay: CYP inhibition assay in human liver microsomes; assay type: in vitro ADME; details: no pre-incubation, read-out: IC50 direct inhibition of CYP3A4/5
Procedure: (§1) The direct inhibition of evocalcet (0.15~50 μM, 6-point concentrations) against the specific activities of 9 CYP isozymes (CYP1A2, CYP2A6, CYP2B6, CYP2C8, CYP2C9, CYP2C19, CYP2D6, CYP2E1, and CYP3A4/5) was examined in human liver microsomes without the pre-incubation of evocalcet, in the presence of the NADPH-generating system. Each CYP substrate was incubated with human liver microsomes in the absence or presence of evocalcet, and the inhibition of evocalcet for each CYP isozyme was measured.

CYP2E1 = molecular target: T1, CYP2E1 (Homo sapiens, UniProt P05181); assay: CYP inhibition assay in human liver microsomes; assay type: in vitro ADME; details: no pre-incubation, read-out: IC50 direct inhibition of CYP2E1
T1 construct: from tissue; host or cells: human liver microsomes
Procedure: as §1

CYP2A6 = molecular target: T2, CYP2A6 (Homo sapiens, UniProt P11509); assay: CYP inhibition assay in human liver microsomes; assay type: in vitro ADME; details: no pre-incubation, read-out: IC50 direct inhibition of CYP2A6
T2 construct: from tissue; host or cells: human liver microsomes
T2 sequence (P11509 1-494): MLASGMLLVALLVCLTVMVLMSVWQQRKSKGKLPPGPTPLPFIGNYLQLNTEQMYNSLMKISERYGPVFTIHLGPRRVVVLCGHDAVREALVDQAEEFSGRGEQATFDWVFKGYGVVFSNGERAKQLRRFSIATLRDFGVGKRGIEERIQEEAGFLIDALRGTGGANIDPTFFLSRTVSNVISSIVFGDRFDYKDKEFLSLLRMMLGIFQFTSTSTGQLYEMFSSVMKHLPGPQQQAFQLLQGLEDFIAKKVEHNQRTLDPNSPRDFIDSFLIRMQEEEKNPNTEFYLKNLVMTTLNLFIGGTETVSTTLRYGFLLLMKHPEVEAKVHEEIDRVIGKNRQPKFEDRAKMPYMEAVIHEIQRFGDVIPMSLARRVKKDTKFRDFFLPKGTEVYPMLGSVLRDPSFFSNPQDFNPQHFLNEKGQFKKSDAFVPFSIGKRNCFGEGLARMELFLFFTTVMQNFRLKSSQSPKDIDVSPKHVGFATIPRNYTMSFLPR
Procedure: as §1

serum PTH = assay: 5/6 nephrectomized rats study: serum PTH level; assay type: in vivo, rat; details: 5/6 Nx rats; for Serum PTH levels before (day 0) and 24 h after evocalcet administration, Mean / Serum PTH levels after the first administration, Mean: group mean; for Serum PTH levels before (day 0) and 24 h after evocalcet administration: individual rats
Procedure: Rats were 5/6 nephrectomized in two steps. Under anesthesia (pentobarbital, 50 mg/kg; intraperitoneally) and analgesia (lidocaine; topically), two-thirds of the left kidney was removed, and then the right kidney was removed after a seven-day interval. Seven days after the completion of 5/6 nephrectomy, the FR-2 diet was changed to a high-phosphate diet, containing 0.6% calcium and 0.9% phosphate (Oriental Yeast Co., Ltd., Tokyo, Japan). Approximately 2 weeks after the initiation of the high-phosphate diet, the 5/6 Nx rats were divided into five groups (n = 12/group) matched in terms of their body weight as well as their blood urea nitrogen (BUN) and serum PTH and calcium levels.
In the single-dose study, blood samples were collected from the tail vein before and at 0.5, 2, 4, 8, 24, 48, and 72 h after the oral administration of vehicle (0.5% methyl cellulose solution) or evocalcet (0.03, 0.1, 0.3, or 1 mg/kg). In the repeated-dose study, vehicle or evocalcet was orally administered to the respective groups once daily for 14 days. Blood samples were obtained from the tail vein before the first administration and after the seventh and last administrations.
The serum PTH level was measured using a Rat Intact PTH ELISA kit (Immutopics, Inc., San Clemente, CA). The serum calcium, phosphate and BUN levels were measured using an auto analyzer (Hitachi High-Technologies Corporation., Tokyo, Japan) or the following test kits: the Calcium E-test WAKO, the Phospha C-test WAKO, or the Blood Urea nitrogen B-test WAKO (Wako Pure Chemical Industries, Ltd., Osaka, Japan).

T1 sequence (P05181 whole entry): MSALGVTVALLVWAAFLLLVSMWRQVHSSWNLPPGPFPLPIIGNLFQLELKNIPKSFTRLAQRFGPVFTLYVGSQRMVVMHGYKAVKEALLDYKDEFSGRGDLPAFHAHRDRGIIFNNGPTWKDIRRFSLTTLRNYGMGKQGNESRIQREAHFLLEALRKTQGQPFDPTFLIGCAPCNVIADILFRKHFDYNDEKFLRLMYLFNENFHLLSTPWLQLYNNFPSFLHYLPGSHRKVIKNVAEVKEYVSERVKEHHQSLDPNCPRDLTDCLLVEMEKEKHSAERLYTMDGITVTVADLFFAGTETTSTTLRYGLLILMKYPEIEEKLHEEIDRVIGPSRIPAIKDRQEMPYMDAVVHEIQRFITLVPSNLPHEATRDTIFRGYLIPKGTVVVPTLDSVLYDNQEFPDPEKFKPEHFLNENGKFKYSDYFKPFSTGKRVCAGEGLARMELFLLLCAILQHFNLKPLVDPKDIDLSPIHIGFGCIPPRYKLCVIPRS

## C[C@@H](N[C@H]1CCN(c2ccc(CC(=O)O)cc2)C1)c1cccc2ccccc12 [evocalcet]
CYP3A4/5
  IC50: > 50 µM
CYP2E1
  IC50: > 50 µM
CYP2A6
  IC50: > 50 µM
Serum PTH; 0.03 mg/kg, 0 h, group mean of 12 rats
  Serum PTH levels after the first administration: 2235.149
Serum PTH; 0.03 mg/kg, 0 h, individual rat
  Serum PTH levels after the first administration: 3146.838 and 3130.460 and 2411.903 and 1952.597 and 3363.037 and 1097.629
Serum PTH; 0.03 mg/kg, 0.5 h, group mean of 12 rats
  Serum PTH levels after the first administration: 2132.775
Serum PTH; 0.03 mg/kg, 0.5 h, individual rat
  Serum PTH levels after the first administration: 4101.960 and 5220.639 and 2506.611 and 3090.422 and 3558.006 and 125.411
Serum PTH; 0.03 mg/kg, 2 h, group mean of 12 rats
  Serum PTH levels after the first administration: 2186.293
Serum PTH; 0.03 mg/kg, 2 h, individual rat
  Serum PTH levels after the first administration: 4890.509 and 4068.711 and 2185.504 and 3005.600 and 4664.020 and 345.560
Serum PTH; 0.03 mg/kg, 4 h, group mean of 12 rats
  Serum PTH levels after the first administration: 2269.553
Serum PTH; 0.03 mg/kg, 4 h, individual rat
  Serum PTH levels after the first administration: 4679.877 and 4835.119 and 2331.859 and 3883.490 and 3137.288 and 547.391
Serum PTH; 0.03 mg/kg, 8 h, group mean of 12 rats
  Serum PTH levels after the first administration: 2414.885
Serum PTH; 0.03 mg/kg, 8 h, individual rat
  Serum PTH levels after the first administration: 5964.855 and 4334.746 and 2555.658 and 4291.517 and 2662.474 and 769.912
Serum PTH; 0.03 mg/kg, 24 h, group mean of 12 rats
  Serum PTH levels after the first administration: 2792.495
Serum PTH; 0.03 mg/kg, 24 h, individual rat
  Serum PTH levels after the first administration: 4890.842 and 5921.359 and 2295.822 and 3334.469 and 3685.692 and 634.649
Serum PTH; 0.03 mg/kg, day 0 (Before)
  Serum PTH levels before (day 0) and 24 h after evocalcet administration, Mean: 2235.149
Serum PTH; 0.03 mg/kg, day 0 (Before), 0.03 mg/kg
  Serum PTH levels before (day 0) and 24 h after evocalcet administration: 3146.838 and 3130.460 and 2411.903 and 1952.597 and 3363.037 and 1097.629 and 2977.436 and 1709.257 and 736.362 and 1492.356 and 1948.854 and 2855.064
Serum PTH; 0.03 mg/kg, day 7 (24 h)
  Serum PTH levels before (day 0) and 24 h after evocalcet administration, Mean: 1440.297
Serum PTH; 0.03 mg/kg, day 7 (24 h), 0.03 mg/kg
  Serum PTH levels before (day 0) and 24 h after evocalcet administration: 175.760 and 1003.083 and 756.245 and 2355.229 and 3361.800 and 1990.106 and 170.127 and 208.561 and 3498.638 and 332.146 and 1090.222 and 2341.644
Serum PTH; 0.03 mg/kg, day 14 (24 h)
  Serum PTH levels before (day 0) and 24 h after evocalcet administration, Mean: 2303.348
Serum PTH; 0.03 mg/kg, day 14 (24 h), 0.03 mg/kg
  Serum PTH levels before (day 0) and 24 h after evocalcet administration: 4997.693 and 3995.599 and 1879.977 and 3492.362 and 3523.261 and 468.569 and 465.344 and 1621.501 and 608.285 and 1702.644 and 1919.474 and 2965.469
Serum PTH; 0.1 mg/kg, 0 h, individual rat
  Serum PTH levels after the first administration: 2191.024 and 4476.799 and 4734.069 and 3561.219 and 1608.879 and 3394.625 and 2344.750 and 2855.532 and 1478.317 and 2515.323
Serum PTH; 0.1 mg/kg, 0.5 h, individual rat
  Serum PTH levels after the first administration: 697.065 and 166.990 and 643.814 and 188.145 and 87.713 and 1427.254 and 2994.134 and 497.193 and 52.922 and 216.107
Serum PTH; 0.1 mg/kg, 2 h, individual rat
  Serum PTH levels after the first administration: 921.070 and 152.688 and 1274.188 and 268.767 and 48.850 and 837.618 and 3213.565 and 734.412 and 45.617 and 171.332
Serum PTH; 0.1 mg/kg, 4 h, individual rat
  Serum PTH levels after the first administration: 1346.496 and 622.337 and 1091.618 and 881.643 and 178.355 and 1445.792 and 3885.042 and 1344.283 and 585.655 and 429.439
Serum PTH; 0.1 mg/kg, 8 h, individual rat
  Serum PTH levels after the first administration: 1602.872 and 1239.629 and 2688.836 and 1069.819 and 616.193 and 1780.899 and 3893.446 and 2481.366 and 541.217
Serum PTH; 0.1 mg/kg, 24 h, individual rat
  Serum PTH levels after the first administration: 2327.970 and 3050.546 and 5188.511 and 1270.996 and 1634.838 and 3384.643 and 3324.854 and 2293.418 and 169.556
Serum PTH; 0.1 mg/kg, day 0 (Before)
  Serum PTH levels before (day 0) and 24 h after evocalcet administration, Mean: 3005.615
Serum PTH; 0.1 mg/kg, day 0 (Before), 0.1 mg/kg
  Serum PTH levels before (day 0) and 24 h after evocalcet administration: 2191.024 and 4476.799 and 4734.069 and 3561.219 and 1608.879 and 3394.625 and 2344.750 and 2855.532 and 1478.317 and 2515.323 and 3938.529 and 2968.311
Serum PTH; 0.1 mg/kg, day 7 (24 h)
  Serum PTH levels before (day 0) and 24 h after evocalcet administration, Mean: 2408.528
Serum PTH; 0.1 mg/kg, day 7 (24 h), 0.1 mg/kg
  Serum PTH levels before (day 0) and 24 h after evocalcet administration: 1659.111 and 1709.141 and 1368.206 and 692.961 and 2049.745 and 3311.770 and 3632.825 and 4438.329 and 2720.020 and 2668.995 and 3977.154 and 674.076
Serum PTH; 0.1 mg/kg, day 14 (24 h)
  Serum PTH levels before (day 0) and 24 h after evocalcet administration, Mean: 1395.021
Serum PTH; 0.1 mg/kg, day 14 (24 h), 0.1 mg/kg
  Serum PTH levels before (day 0) and 24 h after evocalcet administration: 1994.437 and 1611.022 and 2757.774 and 1453.572 and 176.238 and 2214.760 and 1548.955 and 1921.086 and 242.603 and 1372.697 and 1155.599 and 291.504
Serum PTH; 0.3 mg/kg, day 0 (before)
  Serum PTH levels before (day 0) and 24 h after evocalcet administration, Mean: 2359.764
Serum PTH; 0.3 mg/kg, day 0 (before), 0.3 mg/kg
  Serum PTH levels before (day 0) and 24 h after evocalcet administration: 1632.745 and 2446.532 and 2253.029 and 2449.574 and 3238.325 and 2017.644
Serum PTH; 0.3 mg/kg, day 7 (24 h)
  Serum PTH levels before (day 0) and 24 h after evocalcet administration, Mean: 387.934
Serum PTH; 0.3 mg/kg, day 7 (24 h), 0.3 mg/kg
  Serum PTH levels before (day 0) and 24 h after evocalcet administration: 516.033 and 370.580 and 777.450 and 52.037 and 15.500 and 862.269
Serum PTH; 0.3 mg/kg, day 14 (24 h)
  Serum PTH levels before (day 0) and 24 h after evocalcet administration, Mean: 440.352
Serum PTH; 0.3 mg/kg, day 14 (24 h), 0.3 mg/kg
  Serum PTH levels before (day 0) and 24 h after evocalcet administration: 134.323 and 160.654 and 218.153 and 43.180 and 221.109 and 481.197
Serum PTH; 0.3 mg/kg, time 0 h
  Serum PTH levels after the first administration, Mean: 2359.764
Serum PTH; 0.3 mg/kg, time 0.5 h
  Serum PTH levels after the first administration, Mean: 200.671
Serum PTH; 0.3 mg/kg, time 2 h
  Serum PTH levels after the first administration, Mean: 273.789
Serum PTH; 0.3 mg/kg, time 4 h
  Serum PTH levels after the first administration, Mean: 614.302
Serum PTH; 0.3 mg/kg, time 8 h
  Serum PTH levels after the first administration, Mean: 1297.802
Serum PTH; 0.3 mg/kg, time 24 h
  Serum PTH levels after the first administration, Mean: 1196.310
Serum PTH; 1 mg/kg, day 0 (before)
  Serum PTH levels before (day 0) and 24 h after evocalcet administration, Mean: 2488.277
Serum PTH; 1 mg/kg, day 0 (before), 1 mg/kg
  Serum PTH levels before (day 0) and 24 h after evocalcet administration: 3077.112 and 1497.503 and 1942.068 and 2386.399
Serum PTH; 1 mg/kg, day 7 (24 h)
  Serum PTH levels before (day 0) and 24 h after evocalcet administration, Mean: 641.383
Serum PTH; 1 mg/kg, day 7 (24 h), 1 mg/kg
  Serum PTH levels before (day 0) and 24 h after evocalcet administration: 740.010 and 15.500 and 123.742
Serum PTH; 1 mg/kg, day 14 (24 h)
  Serum PTH levels before (day 0) and 24 h after evocalcet administration, Mean: 594.302
Serum PTH; 1 mg/kg, day 14 (24 h), 1 mg/kg
  Serum PTH levels before (day 0) and 24 h after evocalcet administration: 671.158 and 155.818 and 37.909
Serum PTH; 1 mg/kg, time 0 h
  Serum PTH levels after the first administration, Mean: 2488.277
Serum PTH; 1 mg/kg, time 0.5 h
  Serum PTH levels after the first administration, Mean: 86.013
Serum PTH; 1 mg/kg, time 2 h
  Serum PTH levels after the first administration, Mean: 672.764
Serum PTH; 1 mg/kg, time 4 h
  Serum PTH levels after the first administration, Mean: 302.274
Serum PTH; 1 mg/kg, time 8 h
  Serum PTH levels after the first administration, Mean: 788.660
Serum PTH; 1 mg/kg, time 24 h
  Serum PTH levels after the first administration, Mean: 864.186
Serum PTH; once daily oral for 14 days, 24 h after administration on days 7 and 14
  Doses that steadily decreased the serum PTH level: ≥ 0.3 mg/kg
Serum PTH; single oral dose, vs vehicle group
  Doses that significantly decreased the serum PTH level: ≥ 0.1 mg/kg
